The experiment has as its system HIV-1 LAI envelope single-round infectious reporter virus. Description: Single-round infectious luciferase reporter virus infection of MT2 cells (HIV-1 LAI envelope). The format is cell-based. The following applies: Human immunodeficiency virus 1, MT2, 72 h. An excerpt:
Human embryonic Kidney cell line, 293T (HEK 293T), was propagated in Dulbecco's Modified Eagle Medium (Invitrogen, Carlsbad, Calif.) containing 10% fetal Bovine serum (FBS, Sigma, St. Louis, Mo.). The human T-cell leukemia cell MT2 (AIDS Research and Reference Reagent Program, Cat. 237) was propagated in RPMI 1640 (Invitrogen, Carlsbad, Calif.) containing 10% fetal bovine serum (FBS, Hyclone, Logan, Utah)
Single-round infectious reporter virus was produced by co-transfecting HEK 293T cells with plasmide expressing the HIV-1 LAI envelope along with a plasmid containing an HIV-1 LAI proviral cDNA with the envelope gene replaced by a firefly luciferase reporter gene (Chen et al, Ref 41). Transfections were performed using lipofectAMINE PLUS reagent as described by the manufacturer (Invitrogen, Carlsbad, Calif.).
• 1. MT2 cells were plated in black, 384 well plates at a cell density of 5×10^3 cells per well in 25 μl RPMI 1640 containing 10% FBS. • 2. Compound (diluted in dimethylsulfoxide and growth medium) was added to cells at 12.5 μl/well, so that the final assay concentration would be ≦50 nM. • 3. 12.5 μl of single-round infectious reporter virus in Dulbecco's Modified Eagle Medium was added to the plated cells and compound at an approximate multiplicity of infection (MOI) of 0.01, resulting in a final volume of 50 μl per well. • 4. Virus-infected cells were incubated at 37 degrees Celsius, in a CO2 incubator, and harvested 72 h after infection. • 5. Viral infection was monitored by measuring luciferase expression in the infected cells using a luciferase reporter gene assay kit (Steady-Glo, Promega, Madison, Wis.) as described by the manufacturer. Luciferase activity was then quantified by measuring luminescence using an EnVision Multilabel Plate Readers (PerkinElmer, Waltham, Mass.). • 6. The percent inhibition for each compound was calculated by quantifying the level of luciferase expression in cells infected in the presence of each compound as a percentage of that observed for cells infected in the absence of compound and subtracting such a determined value from 100. • 7. An EC50 provides a method for comparing the antiviral potency of the compounds of this disclosure. The effective concentration for fifty percent inhibition (EC50) was calculated with the Microsoft Excel Xlfit curve fitting software. For each compound, curves were generated from percent inhibition calculated at 10 different concentrations by using a four parameter logistic model (model 205). Table 1 is the key for the data in Table 2.
A general note: In a reporter assay the amount or activity of a reporter protein is the signal.

[1] abbreviates: read-out: EC50 Group from Table 1.

Molecules are shown by their SMILES. Like-named read-outs stand apart in the source and are kept apart here.

Consider `CN(C)C(=O)N1CC2CN(C(=O)C(=O)c3c[nH]c4c(-n5ccnn5)ncc(F)c34)CC2C1` (stereo not shown) [Compound 3001, 5-(2-(4-fluoro-7-(1H-1,2,3-triazol-1-yl)-1H-pyrrolo[2,3-c]pyridin-3-yl)-2-oxoacetyl)-N,N-dimethylhexahydropyrrolo[3,4-c]pyrrole-2(1H)-carboxamide], for which, under setting [1], the EC50 (usually the midpoint of the concentration-response curve) is below 500 nM. The same measure, in the same setting: to `COc1cnc(-n2cnc(C)n2)c2[nH]cc(C(=O)C(=O)N3CC4CN(Cc5ccccc5)CC4C3)c12` (stereo not shown) [Compound 2001] belongs below 500 nM; to `COc1cnc(-n2cnc(C)n2)c2[nH]cc(C(=O)C(=O)N3CC4CN(C(=O)N(C)C)CC4C3)c12` (stereo not shown) [Compound 3002, 5-(2-(4-methoxy-7-(3-methyl-1H-1,2,4-triazol-1-yl)-1H-pyrrolo[2,3-c]pyridin-3-yl)-2-oxoacetyl)-N,N-dimethylhexahydropyrrolo[3,4-c]pyrrole-2(1H)-carboxamide], below 500 nM. With `COc1cnc(-n2cnc(C)n2)c2[nH]cc(C(=O)C(=O)N3CC4CN(C(=O)c5ccccc5)CC4C3)c12` (stereo not shown) [Compound 2006], a half-maximal effect (EC50) was put at 0.68 nM. The EC50 under setting [1] is below 500 nM. On to `O=C(C(=O)N1CC2CN(Cc3ccccc3)CC2C1)c1c[nH]c2c(-n3ccnn3)ncc(F)c12` (stereo not shown) [Compound 2003], for which, under setting [1], the 50% effective concentration (EC50) was above 500 nM. As to `COc1cnc(-n2cnc(C)n2)c2[nH]cc(C(=O)C(=O)N3CC4CN(c5nnnn5-c5ccccc5)CC4C3)c12` (stereo not shown) [Compound 1002, 1-(4-methoxy-7-(3-methyl-1H-1,2,4-triazol-1-yl)-1H-pyrrolo[2,3-c]pyridin-3-yl)-2-(5-(1-phenyl-1H-tetrazol-5-yl)hexahydropyrrolo[3,4-c]pyrrol-2(1H)-yl)ethane-1,2-dione], a half-maximal response (EC50) required 1.41 nM. For the same compound, the half-maximal effective concentration (EC50) under setting [1] was below 500 nM.

On to `O=C(C(=O)N1CC2CN(C(=O)c3ccccc3)CC2C1)c1c[nH]c2c(-n3ccnn3)ncc(F)c12` (stereo not shown) [Compound 2005], for which the EC50 under setting [1] is below 500 nM. On the same count and under the same terms, to `O=C(C(=O)N1CC2CN(c3nnnn3-c3ccccc3)CC2C1)c1c[nH]c2c(-n3ccnn3)ncc(F)c12` (stereo not shown) [Compound 1001, 1-(4-fluoro-7-(1H-1,2,3-triazol-1-yl)-1H-pyrrolo[2,3-c]pyridin-3-yl)-2-(5-(1-phenyl-1H-tetrazol-5-yl)hexahydropyrrolo[3,4-c]pyrrol-2(1H)-yl)ethane-1,2-dione] belongs below 500 nM.

(Values after patent US8835454B2, “Fused bicyclic diamine derivatives as HIV attachment inhibitors” (priority 2011, dated 2014).)
